Measured values as given in PMC9962283, “The Plant Derived 3-3′-Diindolylmethane (DIM) Behaves as CB2 Receptor Agonist in Prostate Cancer Cellular Models” (International Journal of Molecular Sciences, 2023).
“Also recorded” adds a separate entry of the source.

Assays:
[1] = test system: cannabinoid CB1 or CB2 receptors (LNCaP cell membranes); test: [35S]GTPγS binding in LNCaP cell membranes; assay type: biochemical, human; conditions: agonist alone, read-out: EC50, stimulation of [35S]GTPγS binding
Protocol: (§1) Binding assays with [^35S]GTPγS were performed with PC3 or LNCaP cell membranes. Both PC3 and LNCaP cells were removed from flasks by scraping and then frozen as a pellet at −20 °C until required. Before use in a radioligand-binding assay, cells were defrosted, diluted in Tris buffer (50 mM Tris–HCl, 50 mM Tris-Base) and homogenized. Protein assays were performed using a Bio-Rad Dc kit (Bio-Rad©, Watford, UK).
The measurement of ligand-stimulated [^35S]GTPγS binding to cannabinoid CB1 or CB2 receptors was adapted from methods described previously. The assays were carried out with GTPγS-binding buffer (50 mM Tris–HCl, 50 mM Tris-Base, 5 mM MgCl2, 1 mM ethylenediaminetetraacetic acid, 100 mM NaCl, 1 mM dithiothreitol and 0.1% bovine serum albumin) in the presence of [^35S]GTPγS and GDP, in a final volume of 500 μL. Binding was initiated by the addition of [^35S]GTPγS to the wells. Non-specific binding was measured in the presence of 30 μM GTPγS. The drugs were incubated in the assay for 60 min at 30 °C. The reaction was terminated by a rapid vacuum filtration method using Tris-binding buffer, as described previously, and the radioactivity was quantified by liquid scintillation spectrometry. In all the [^35S]GTPγS-binding assays, we used 0.1 nM [^35S]GTPγS, 30 μM GDP and a protein concentration of 40 μg per well for PC3 and LNCaP cell membranes. Compounds were stored at −20 °C in DMSO. […]

[2] = test system: FSK-induced cAMP production in PC3 cells; test: Cyclic AMP assay (HitHunter), FSK-induced cAMP production in PC3 cells; assay type: cell-based, human; conditions: for Imax, inhibition of FSK-induced cAMP production / pIC50, inhibition of FSK-induced cAMP production / IC50: agonist alone; for IC50: read-out: IC50, inhibition of FSK-induced cAMP production
Protocol: The assays were performed using the HitHunter® cAMP assay kit (Eurofins DiscoverX Products, Celle-L’Evescault, France) according to the vendor’s protocol and previous studies. Briefly, cells were detached using cell dissociation buffer, counted and seeded at 2 × 10^4 cells per well in […] of complete medium onto white 96-well plates and incubated at 37 °C and 5% CO2 for approximately 24 h before running the experiment. The assays and the drug dilutions were performed in a 1:1 mixture of DMEM and Ham’s F12 medium without phenol red, containing […] of rolipram and forskolin (FSK; 7b-acetoxy-8,13-epoxy-1a,6b,9 atrihydroxylabd-14-en-11-one). Before running the assay, the medium was discarded, and cells were washed with D-MEM/F-12 medium. Then, cells were treated with the assigned drugs (30 μL per well) and incubated for 30 min at 37 °C and 5% CO2. Finally, cAMP standards and the appropriate mixture of kit components were added (as described by the manufacturer, Eurofins DiscoverX Products, Celle-L’Evescault, France). Plates were incubated overnight at room temperature in the dark. Chemiluminescent signals were detected on a Synergy HT Multi-Mode Microplate Reader (ThermoFisher Scientific, Loughborough, UK).
(§2) Values for half of the maximal effective concentration required to elicit a response (EC50), or for the half maximal inhibitory concentration (IC50) required to inhibit a response, as well as for maximal effect (Emax), standard error of the mean (S.E.M.) and 95% confidence limits of EC50 and IC50, have been calculated by nonlinear regression analysis using the equation for a sigmoid concentration–response curve (GraphPad Prism v5.0, San Diego, CA, USA). Paired Student’s t-test or one-way ANOVA analysis of variance (with Tukey’s post hoc analysis) was used where appropriate for cell viability and western blotting data. A value of p < 0.05 was taken as being significant.

[3] = test system: cannabinoid CB1 or CB2 receptors (PC3 cell membranes); test: [35S]GTPγS binding in PC3 cell membranes; assay type: biochemical, human; conditions: for EC50: agonist alone, read-out: EC50, stimulation of [35S]GTPγS binding
Protocol: as §1
The measurement of ligand-stimulated [^35S]GTPγS binding to cannabinoid CB1 or CB2 receptors was adapted from methods described previously. The assays were carried out with GTPγS-binding buffer (50 mM Tris–HCl, 50 mM Tris-Base, 5 mM MgCl2, 1 mM ethylenediaminetetraacetic acid, 100 mM NaCl, 1 mM dithiothreitol and 0.1% bovine serum albumin) in the presence of [^35S]GTPγS and GDP, in a final volume of 500 μL. Binding was initiated by the addition of [^35S]GTPγS to the wells. Non-specific binding was measured in the presence of 30 μM GTPγS. The drugs were incubated in the assay for 60 min at 30 °C. The reaction was terminated by a rapid vacuum filtration method using Tris-binding buffer, as described previously, and the radioactivity was quantified by liquid scintillation spectrometry. In all the [^35S]GTPγS-binding assays, we used 0.1 nM [^35S]GTPγS, 30 μM GDP and a protein concentration of 40 μg per well for PC3 and LNCaP cell membranes. Compounds were stored at −20 °C in DMSO.
Paired Student’s t-test or one-way ANOVA analysis of variance (with Tukey’s post hoc analysis) was used where appropriate for cell viability and western blotting data. A value of p < 0.05 was taken as being significant.

CB2 receptors = test system: CB2 receptors; parameters: method as in PMID 19286662; conditions: hCB1/CB2-CHO transfected cells, β-arrestin assay; cited from earlier work
phosphor-AKT (Ser473) = test: Western blot of phospho-AKT (Ser473) levels in PC3 cells; assay type: cell-based, human
Protocol: (§3) Cells were homogenized in lysis buffer [20 mM Tris, 0.25 M sucrose, 10 mM ethyleneglycol-bis(aminoethylether)-tetraacetic acid, 2 mM ethylenediaminetetraacetic acid, 1 mM sodium orthovanadate, 25 mM sodium β-glycerophosphate and 50 mM sodium fluoride; pH 7.5]. Prior to use, 0.1% (vol:vol), protease Inhibitor Cocktail (Merck Life Science Ltd, Gillingham, UK) was added. A total of 20 μg of protein was electrophoresed through a precast 16% polyacrylamide gel (Thermo Fisher, Oxford, UK) for 2 h and the separated proteins were transferred to nitrocellulose membranes (Bio-Rad, UK), then blocked with 5% (wt:vol) skimmed milk in Tris-buffered saline with 0.1% (vol:vol) Tween 20 (TBST solution) at room temperature and incubated with 1:200 dilution of anti-pAKT (Ser473) antibody (Merck Life Science Limited, Watford, Hertfordshire UK) or 1:200 cleaved-CASP-3 antibody (Insight Biotechnology, UK) at 4 °C overnight. β-Actin (1:20,000) was used as an internal loading control to normalize between lanes during densitometry. The appropriate secondary antibody for pAKT (anti-mouse), cleaved-CASP-3 (anti-mouse) was used at a concentration of 1:5000 (Insight Biotechnology Ltd, Wembley, Middlesex, UK) and incubated at room temperature for 1 h. […]

LNCaP cells = test: Cell viability (MTT) assay in LNCaP cells; assay type: cell-based, human; conditions: 24 h, DIM alone
Protocol: (§4) Human prostate cancer cell lines, LNCaP and PC3, were obtained from the European Collection of Animal Cell Cultures. These were cultured in RPMI 1640 medium (Merck Life Science Ltd., Gillingham, UK) containing 10% (vol:vol) fetal bovine serum and 1% (vol:vol) Penicillin–Streptomycin Solution (10,000 U/mL penicillin and 10 mg/mL streptomycin in 0.9% sodium chloride (Merck Life Science Ltd., Gillingham, UK).
(§5) A standard 3-(4,-5-dimethylthiazol-2-yl)-2,-5-diphenyl tetrazolium bromide (MTT) dye reduction assay was used to assess compounds. Briefly, cells were plated in a flat-bottomed 96-well plate at seeding densities of 6 × 10^3 cells per well for LNCaP cells and 5 × 10^3 cells per well for PC3 cells. Cells were treated the following day with the appropriate agents for 24 h. Following the incubation period, the MTT solution (5 mg/mL in phosphate-buffered saline) was added and incubated for 4 h. The contents of the wells were removed and replaced with 200 μL DMSO to dissolve the MTT formazan crystals. The plates were immediately read at 570 nm in a multi-well plate reader (DynaTech MR5000; Dynex Technologies Ltd., Chantilly, VA, USA).
as §2

[4] = test system: cleaved caspase 3 (CASP-3); test: Western blot of cleaved caspase 3 levels in PC3 cells; assay type: cell-based, human
Protocol: as §3

CB1 receptors = test system: CB1 receptors; parameters: method as in PMID 19286662; conditions: hCB1/CB2-CHO transfected cells; cited from earlier work
PC3 cells = test: Cell viability (MTT) assay in PC3 cells; assay type: cell-based, human; conditions: 24 h, DIM alone
Protocol: as §4, §5, §2

CCCCCCC(C)(C)c1ccc([C@@H]2C[C@H](O)CC[C@H]2CCCO)c(O)c1 [CP 55,940]
EC50 [1]: 0.00256 µM | Imax, inhibition of FSK-induced cAMP production [2]: 9.74 | pIC50, inhibition of FSK-induced cAMP production [2]: 8.314 | IC50 [2]: 0.00485 µM | EC50 [3]: 0.00614 µM

c1ccc2c(Cc3c[nH]c4ccccc34)c[nH]c2c1 [DIM, 3-3′-Diindolylmethane]
EC50 [1]: 0.0321 µM | Imax, inhibition of FSK-induced cAMP production [2]: 17.36 | pIC50, inhibition of FSK-induced cAMP production [2]: 7.870 | IC50 [2]: 0.0135 µM | Agonist behaviour in [35S]GTPγS binding [3]: full agonist behavior | EC50 [3]: 0.00928 µM | Functional behaviour on CB2 receptors (CB2 receptors): partially activate; also recorded: partial agonist | pAKT level (phosphor-AKT (Ser473); DIM 50 nM): no significant reduction | pAKT level (phosphor-AKT (Ser473); DIM 50 µM): strong and significant reduction | IC50 (LNCaP cells): 85 µM | Imax, cell viability (LNCaP cells): -16.63 | pIC50, cell viability (LNCaP cells): 4.071 | Cleaved CASP-3 level ([4]; DIM 50 nM): significant increase | Cleaved CASP-3 level ([4]; DIM 50 µM): significant increase | Functional behaviour on CB1 receptors (CB1 receptors): slight inverse agonist | IC50 (PC3 cells): 38.9 µM | Imax, cell viability (PC3 cells): 8.50 | pIC50, cell viability (PC3 cells): 4.410

Cc1c(C(=O)NN2CCCCC2)nn(-c2ccc(Cl)cc2Cl)c1-c1ccc(Cl)cc1 [SR1]
Effect of CB1 antagonist on DIM's inhibition of FSK-induced cAMP production [2]: no effect
